Measured values taken from patent US10172830B2, “Pyrazolone compounds having human neutrophil elastase inhibitory properties” (CHIESI FARMACEUTICI S.P.A., priority 2016, dated 2019).

Target: T1, human neutrophil elastase (HNE) (Homo sapiens, UniProt P08246)
T1 construct: purchased Sigma E8140
T1 sequence (P08246 30-247 limits assumed): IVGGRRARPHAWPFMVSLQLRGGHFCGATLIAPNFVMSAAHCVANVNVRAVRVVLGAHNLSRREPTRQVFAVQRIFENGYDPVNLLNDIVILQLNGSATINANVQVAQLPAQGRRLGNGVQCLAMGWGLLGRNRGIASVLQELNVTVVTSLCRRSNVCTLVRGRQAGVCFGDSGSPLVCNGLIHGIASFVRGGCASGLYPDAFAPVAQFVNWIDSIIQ
Test: HNE enzyme assay (human neutrophil elastase enzyme activity assay)
Type: biochemical
Conditions: human leukocyte elastase 0.00072 U/mL; substrate MeOSuc-Ala-Ala-Pro-Val-AMC 100 μM; 25° C. for 30 minutes; at least two separate experiments; read-out: HNE inhibition (HNE enzyme inhibition, IC50 values)
Description: Compounds of the present invention were tested for potency in a human neutrophil elastase (HNE) enzyme activity assay.
Assays were performed in 96-well plates in a total assay volume of 100 μL. The final concentration of elastase enzyme (human leukocyte elastase, Sigma E8140) was 0.00072 U/mL. The peptide substrate (MeOSuc-Ala-Ala-Pro-Val-AMC, Calbiochem #324740) was used at a final concentration of 100 μM. The final concentration of DMSO was 1% in the assay buffer (0.05M Tris.HCl, 0.1M NaCl, 0.1M CaCl2, 0.0005% brij-35, pH 7.5). The enzymatic reaction was started by addition of the enzyme and incubated at 25° C. for 30 minutes. After incubation, the reaction was stopped by addition of soybean trypsin inhibitor (Sigma T9003) at a final concentration of 50 μg/well. Fluorescence was measured using a Molecular Devices fluorescence plate reader using 380 nm excitation and 460 nm emission wavelengths.
A dose response to each compound was performed and the effect of compound in each experiment was expressed as a percentage inhibition of the control enzyme fluorescence. Dose response curves were plotted and compound potency (IC50) was determined. Compounds were tested in at least two separate experiments.

IC50 [nM] | SMILES
< 1 | Cn1c(-c2ccnn2-c2ccc(C#N)cc2)c(C(=O)NC2(C(=O)NCC[N+](C)(C)C)CCCC2)c(=O)n1-c1cccc(C(F)(F)F)c1 [Example 57, {2-[(1-{[2′-(4-Cyano-phenyl)-2-methyl-5-oxo-1-(3-trifluoromethyl-phenyl)-2,5-dihydro-1H,2′H-[3,3′]bipyrazolyl-4-carbonyl]-amino}-cyclopentanecarbonyl)-amino]-ethyl}-trimethyl-ammonium benzene sulphonate]
< 1 | Cn1c(-c2ccnn2-c2ccc(C#N)cc2)c(C(=O)NC2CC[N+](C)(C)CC2)c(=O)n1-c1cccc(C(F)(F)F)c1 [Example 18, 4-{[2′-(4-Cyano-phenyl)-2-methyl-5-oxo-1-(3-trifluoromethyl-phenyl)-2,5-dihydro-1H,2′H-[3,3′]bipyrazolyl-4-carbonyl]-amino}-1,1-dimethyl-piperidinium benzene sulphonate]
< 1 | Cn1c(-c2ccnn2-c2ccc(C#N)cc2)c(C(=O)N[C@H]2CC[C@H](NC(=O)C[N+](C)(C)C)CC2)c(=O)n1-c1cccc(C(F)(F)F)c1 [Example 45, [(Trans-4-{[2′-(4-cyano-phenyl)-2-methyl-5-oxo-1-(3-trifluoromethyl-phenyl)-2,5-dihydro-1H,2′H-[3,3′]bipyrazolyl-4-carbonyl]-amino}-cyclohexylcarbamoyl)-methyl]-trimethyl-ammonium benzene sulphonate]
< 1 | Cn1c(-c2ccnn2-c2ccc(C#N)cc2)c(C(=O)N[C@H]2CC[C@H](C[N+](C)(C)C)CC2)c(=O)n1-c1cccc(C(F)(F)F)c1 [Example 24, (Trans-4-{[2′-(4-cyano-phenyl)-2-methyl-5-oxo-1-(3-trifluoromethyl-phenyl)-2,5-dihydro-1H,2′H-[3,3′]bipyrazolyl-4-carbonyl]-amino}-cyclohexylmethyl)-trimethyl-ammonium benzene sulphonate]
< 1 | CN1CCC(OC(=O)[C@H]2CC[C@H](NC(=O)c3c(-c4ccnn4-c4ccc(C#N)cc4)n(C)n(-c4cccc(C(F)(F)F)c4)c3=O)CC2)CC1 [Example 13, Trans-4-{[2′-(4-cyano-phenyl)-2-methyl-5-oxo-1-(3-trifluoromethyl-phenyl)-2,5-dihydro-1H,2′H-[3,3′]bipyrazolyl-4-carbonyl]-amino}-cyclohexanecarboxylic acid 1-methyl-piperidin-4-yl ester]
< 1 | C[C@H](NC(=O)c1c(-c2ccnn2-c2ccc(C#N)cc2)n(C)n(-c2cccc(C(F)(F)F)c2)c1=O)C(=O)N(C)CC1CC[N+](C)(C)CC1 [Example 36, 4-{[((S)-2-{[2′-(4-Cyano-phenyl)-2-methyl-5-oxo-1-(3-trifluoromethyl-phenyl)-2,5-dihydro-1H,2′H-[3,3′]bipyrazolyl-4-carbonyl]-amino}-propionyl)-methyl-amino]-methyl}-1,1-dimethyl-piperidinium benzene sulphonate]
< 1 | C[C@H](NC(=O)c1c(-c2ccnn2-c2ccc(C#N)cc2)n(C)n(-c2cccc(C(F)(F)F)c2)c1=O)c1ncc(C[N+](C)(C)Cc2ccccc2)o1 [Example 31, Benzyl-[2-((S)-1-{[2′-(4-cyano-phenyl)-2-methyl-5-oxo-1-(3-trifluoromethyl-phenyl)-2,5-dihydro-1H,2′H-[3,3′]bipyrazolyl-4-carbonyl]-amino}-ethyl)-oxazol-5-ylmethyl]-dimethyl-ammonium bromide]
< 1 | Cn1c(-c2ccnn2-c2ccc(C#N)cc2)c(C(=O)N[C@@H]2C[C@@H]3CN(C(=O)OC(C)(C)C)C[C@@H]3C2)c(=O)n1-c1cccc(C(F)(F)F)c1 [Example 4, (3aS,5R,6aR)-5-{[2′-(4-Cyano-phenyl)-2-methyl-5-oxo-1-(3-trifluoromethyl-phenyl)-2,5-dihydro-1H,2′H-[3,3′]bipyrazolyl-4-carbonyl]-amino}-hexahydro-cyclopenta[c]pyrrole-2-carboxylic acid tert-butyl ester]
< 1 | Cn1c(-c2ccnn2-c2ccc(C#N)cc2)c(C(=O)NC2(C)CCN(C(=O)C[N+](C)(C)C)CC2)c(=O)n1-c1cccc(C(F)(F)F)c1 [Example 64, [2-(4-{[2′-(4-Cyano-phenyl)-2-methyl-5-oxo-1-(3-trifluoromethyl-phenyl)-2,5-dihydro-1H,2′H-[3,3′]bipyrazolyl-4-carbonyl]-amino}-4-methyl-piperidin-1-yl)-2-oxo-ethyl]-trimethyl-ammonium benzene sulphonate]
1 to 10 | Cn1c(-c2ccnn2-c2ccc(C#N)cc2)c(C(=O)OC2CCN(C(=O)C[N+](C)(C)C)CC2)c(=O)n1-c1cccc(C(F)(F)F)c1 [Example 34, (2-{4-[2′-(4-Cyano-phenyl)-2-methyl-5-oxo-1-(3-trifluoromethyl-phenyl)-2,5-dihydro-1H,2′H-[3,3′]bipyrazolyl-4-carbonyloxy]-piperidin-1-yl}-2-oxo-ethyl)-trimethyl-ammonium benzene sulphonate]
< 1 | Cn1c(-c2ccnn2-c2ccc(C#N)cc2)c(C(=O)N[C@H]2CC[C@H](C(=O)NC3CC[N+](C)(C)CC3)CC2)c(=O)n1-c1cccc(C(F)(F)F)c1 [Example 58, 4-[(4-{[2′-(4-Cyano-phenyl)-2-methyl-5-oxo-1-(3-trifluoromethyl-phenyl)-2,5-dihydro-1H,2′H-[3,3′]bipyrazolyl-4-carbonyl]-amino}-cyclohexanecarbonyl)-amino]-1,1-dimethyl-piperidinium benzene sulphonate]
< 1 | C[C@H](NC(=O)c1c(-c2ccnn2-c2ccc(C#N)cc2)n(C)n(-c2cccc(C(F)(F)F)c2)c1=O)C(=O)N1CCC[N+](C)(C)CC1 [Example 66, 4-((S)-2-{[2′-(4-Cyano-phenyl)-2-methyl-5-oxo-1-(3-trifluoromethyl-phenyl)-2,5-dihydro-1H,2′H-[3,3′]bipyrazolyl-4-carbonyl]-amino}-propionyl)-1,1-dimethyl-[1,4]diazepan-1-ium benzene sulphonate]
< 1 | CN(CC[N+](C)(C)C)C(=O)C1(NC(=O)c2c(-c3ccnn3-c3ccc(C#N)cc3)n(C)n(-c3cccc(C(F)(F)F)c3)c2=O)CCCC1 [Example 61, {2-[(1-{[2′-(4-Cyano-phenyl)-2-methyl-5-oxo-1-(3-trifluoromethyl-phenyl)-2,5-dihydro-1H,2′H-[3,3′]bipyrazolyl-4-carbonyl]-amino}-cyclopentanecarbonyl)-methyl-amino]-ethyl}-trimethyl-ammonium benzene sulphonate]
< 1 | Cn1c(-c2ccnn2-c2ccc(C#N)cc2)c(C(=O)N[C@H]2CC[C@H](C(=O)N3CCC([N+](C)(C)C)CC3)CC2)c(=O)n1-c1cccc(C(F)(F)F)c1 [Example 60, [1-(4-{[2′-(4-Cyano-phenyl)-2-methyl-5-oxo-1-(3-trifluoromethyl-phenyl)-2,5-dihydro-1H,2′H-[3,3′]bipyrazolyl-4-carbonyl]-amino}-cyclohexanecarbonyl)-piperidin-4-yl]-trimethyl-ammonium benzene sulphonate]
< 1 | Cn1c(-c2ccnn2-c2ccc(C#N)cc2)c(C(=O)N[C@H]2CC[C@H](OC(=O)C[N+](C)(C)C)CC2)c(=O)n1-c1cccc(C(F)(F)F)c1 [Example 62, (Trans-4-{[2′-(4-cyano-phenyl)-2-methyl-5-oxo-1-(3-trifluoromethyl-phenyl)-2,5-dihydro-1H,2′H-[3,3′]bipyrazolyl-4-carbonyl]-amino}-cyclohexyloxycarbonylmethyl)-trimethyl-ammonium benzene sulphonate]
